Measured values taken from US20160355530A1, “HEPATITIS C INHIBITORS AND USES THEREOF” (AbbVie Inc., priority 2010, published 2016).
Read-outs that look alike come from different tables or passages of the source.

Experiments:
[1] = tested on: chimeric replicon with 2a-J6CF-derived NS5B; experiment: microbe, parasite or virus in culture; assay type: cell-based, HCV genotype 2a; conditions: Hepatitis C virus, read-out: 2a chimera 5% FBS EC50
[2] = tested on: chimeric replicon with genotype 3a NS5B; experiment: microbe, parasite or virus in culture; assay type: cell-based, HCV genotype 3a; conditions: Hepatitis C virus, read-out: 3a chimera 5% FBS EC50
[3] = tested on: HCV 1b-BB7 subgenomic replicon; experiment: microbe, parasite or virus in culture; assay type: cell-based, HCV genotype 1b; conditions: Hepatitis C virus, stable replicon
[4] = tested on: chimeric replicon with genotype 2b NS5B; experiment: microbe, parasite or virus in culture; assay type: cell-based, HCV genotype 2b; conditions: Hepatitis C virus, read-out: 2b chimera 5% FBS EC50
[5] = biological target: T1, HCV NS5B polymerase 1a-H77-C316Y (Hepatitis C virus genotype 1a, UniProt P27958, C2736Y); experiment: biochemical; parameters: species or system HCV genotype 1a
T1 construct: six-histidine tag; made in house; host or cells: E. coli
In short: (§1)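 Recombinant NS5B (residues 1–570, His-tagged, E. coli-expressed) copied 5 nM of a 2.1 kb HCV 1b negative-strand 3′-end RNA template with 20 μM CTP, 20 μM ATP and 0.284 μM [3H]UTP for 3 h at 30 °C. Spermine-precipitated RNA was filter-captured and counted, and IC50 was fitted by nonlinear regression.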

[6] = biological target: T2, HCV NS5B polymerase 1a-H77 (Hepatitis C virus genotype 1a, UniProt P27958); experiment: biochemical; parameters: species or system HCV genotype 1a; conditions: enzyme, strain 1a H77; read-out: HCV Polymerase Strain 1a H77 IC50
T2 construct: six-histidine tag; made in house; host or cells: E. coli
In short: as §1

[7] = tested on: HCV NS5B polymerase 1a-H77-C316Y; experiment: biochemical; parameters: species or system HCV genotype 1a; conditions: ratio of enzyme IC50s, 1a H77-C316Y / 1a H77
In short: as §1

[8] = tested on: HCV 1a-H77 subgenomic replicon; experiment: microbe, parasite or virus in culture; assay type: cell-based, HCV genotype 1a; conditions: Hepatitis C virus, stable replicon
[9] = tested on: chimeric replicon with genotype 4a NS5B; experiment: microbe, parasite or virus in culture; assay type: cell-based, HCV genotype 4a; conditions: Hepatitis C virus, read-out: 4a chimera 5% FBS EC50
[10] = biological target: T3, HCV NS5B polymerase 1b BK strain (Hepatitis C virus genotype 1b, UniProt P26663); experiment: HCV NS5B polymerase enzymatic inhibition assay, strain 1b BK; assay type: biochemical; conditions: enzyme, strain 1b BK; read-out: HCV Polymerase Strain 1b BK IC50
T3 construct: six-histidine tag; made in house; host or cells: E. coli
In short: as §1

[11] = strain 1b BB7, 5% FBS + 40% human plasma, read-out: 1b BB7 5% FBS + 40% Human Plasma EC50
[12] = strain 1b BB7, 5% FBS, no human plasma, read-out: 1b BB7 5% FBS EC50
[13] = strain 1b BB7, 5% FBS, read-out: 1b BB7 5% FBS EC50
[14] = 5% FBS, absence of human plasma, read-out: Stable Replicon 1a H77 5% FBS EC50
[15] = strain 1a H77, 5% FBS + 40% human plasma, read-out: 1a H77 5% FBS + 40% Human Plasma EC50
[16] = strain 1a H77, 5% FBS, no human plasma, read-out: 1a H77 5% FBS EC50
[17] = strain 1a H77, 5% FBS, read-out: 1a H77 5% FBS EC50

T1 sequence (P27958 2421-2990 C2736Y): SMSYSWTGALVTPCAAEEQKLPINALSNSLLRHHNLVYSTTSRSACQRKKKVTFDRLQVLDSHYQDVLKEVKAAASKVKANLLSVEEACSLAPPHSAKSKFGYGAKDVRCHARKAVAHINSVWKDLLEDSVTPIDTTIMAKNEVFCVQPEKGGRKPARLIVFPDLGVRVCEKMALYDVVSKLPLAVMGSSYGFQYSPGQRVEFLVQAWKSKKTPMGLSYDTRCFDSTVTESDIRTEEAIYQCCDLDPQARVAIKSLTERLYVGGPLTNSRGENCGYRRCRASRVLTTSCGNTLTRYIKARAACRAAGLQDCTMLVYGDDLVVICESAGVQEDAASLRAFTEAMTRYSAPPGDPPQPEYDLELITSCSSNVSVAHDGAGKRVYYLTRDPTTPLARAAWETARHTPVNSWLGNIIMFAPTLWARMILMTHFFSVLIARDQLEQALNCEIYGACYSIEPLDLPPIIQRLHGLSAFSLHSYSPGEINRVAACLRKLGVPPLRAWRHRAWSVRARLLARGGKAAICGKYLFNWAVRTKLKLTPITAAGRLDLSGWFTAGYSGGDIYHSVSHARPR
T3 sequence (P26663 2420-2989): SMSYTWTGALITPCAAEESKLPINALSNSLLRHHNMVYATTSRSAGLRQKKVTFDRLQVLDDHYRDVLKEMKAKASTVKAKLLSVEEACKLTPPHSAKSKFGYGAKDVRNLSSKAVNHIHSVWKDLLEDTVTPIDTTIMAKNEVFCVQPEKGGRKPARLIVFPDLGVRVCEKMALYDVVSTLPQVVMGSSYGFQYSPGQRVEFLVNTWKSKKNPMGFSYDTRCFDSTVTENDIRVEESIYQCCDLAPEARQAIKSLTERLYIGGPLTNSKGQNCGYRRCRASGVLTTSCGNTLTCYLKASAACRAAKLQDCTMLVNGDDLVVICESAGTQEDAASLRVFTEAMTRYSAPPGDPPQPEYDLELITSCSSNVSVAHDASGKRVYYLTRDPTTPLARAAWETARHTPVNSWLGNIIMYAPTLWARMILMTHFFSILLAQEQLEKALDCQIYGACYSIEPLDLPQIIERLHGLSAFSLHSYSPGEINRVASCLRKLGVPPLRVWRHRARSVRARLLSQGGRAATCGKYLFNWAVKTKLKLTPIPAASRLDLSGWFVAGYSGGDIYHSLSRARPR
T2 sequence (P27958 2421-2990): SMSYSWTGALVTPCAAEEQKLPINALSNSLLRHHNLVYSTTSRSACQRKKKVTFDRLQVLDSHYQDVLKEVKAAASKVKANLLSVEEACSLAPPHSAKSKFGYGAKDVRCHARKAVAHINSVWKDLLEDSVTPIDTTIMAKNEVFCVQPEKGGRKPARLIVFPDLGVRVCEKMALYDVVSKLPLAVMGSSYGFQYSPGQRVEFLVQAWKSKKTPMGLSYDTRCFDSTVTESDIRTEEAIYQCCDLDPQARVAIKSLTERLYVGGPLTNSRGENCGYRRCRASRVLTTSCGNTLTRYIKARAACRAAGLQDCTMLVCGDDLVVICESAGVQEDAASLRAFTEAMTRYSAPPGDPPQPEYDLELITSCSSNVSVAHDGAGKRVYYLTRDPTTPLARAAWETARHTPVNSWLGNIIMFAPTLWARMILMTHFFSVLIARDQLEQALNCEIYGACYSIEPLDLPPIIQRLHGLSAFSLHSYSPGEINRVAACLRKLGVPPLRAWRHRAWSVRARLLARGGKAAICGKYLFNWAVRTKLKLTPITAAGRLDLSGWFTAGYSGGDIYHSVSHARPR

SMILES	EC50 [1]	EC50 [2]	EC50 [3, 11]	EC50 [3, 12]	EC50 [3, 13]	EC50 [4]	IC50 [5]	IC50 [6]	C316Y/1a Fold Resistance [7]	EC50 [8, 14]	EC50 [8, 15]	EC50 [8, 16]	EC50 [8, 17]	EC50 [9]	IC50 [10]
CN(C)CCCN(c1cc2oc(-c3ccc(F)cc3)c(C3=NOCCN3)c2cc1C1CC1)S(C)(=O)=O [Example 127, N-[5-cyclopropyl-3-(5,6-dihydro-4H-1,2,4-oxadiazin-3-yl)-2-(4-fluorophenyl)-1-benzofuran-6-yl]-N-[3-(dimethylamino)propyl]methanesulfonamide]	0.344 µM	0.057 µM	0.09 µM	0.021 µM	0.021 µM	0.309 µM	0.663 µM	0.0254 µM	26 fold	0.0648 µM	0.123 µM	0.0648 µM	0.0648 µM	0.814 µM	0.302 µM
CS(=O)(=O)N(CCN1CCCC1)c1cc2oc(-c3ccc(F)cc3)c(C3=NOCCN3)c2cc1C1CC1 [Example 128, N-[5-cyclopropyl-3-(5,6-dihydro-4H-1,2,4-oxadiazin-3-yl)-2-(4-fluorophenyl)-1-benzofuran-6-yl]-N-[2-(pyrrolidin-1-yl)ethyl]methanesulfonamide]	0.699 µM	0.216 µM	0.268 µM	0.044 µM	0.044 µM	0.839 µM	0.995 µM	0.0456 µM	22 fold	0.161 µM	0.383 µM	0.161 µM	0.161 µM	> 1 µM	0.667 µM
CCN(CC)CCN(c1cc2oc(-c3ccc(F)cc3)c(C3=NOCCN3)c2cc1C1CC1)S(C)(=O)=O [Example 129, N-[5-cyclopropyl-3-(5,6-dihydro-4H-1,2,4-oxadiazin-3-yl)-2-(4-fluorophenyl)-1-benzofuran-6-yl]-N-[2-(diethylamino)ethyl]methanesulfonamide]	0.625 µM	0.149 µM	0.163 µM	0.038 µM	0.038 µM	0.625 µM	0.632 µM	0.024 µM	26 fold	0.0809 µM	0.3 µM	0.0809 µM	0.0809 µM	> 1 µM	0.466 µM
CCN(CC)CCCN(c1cc2oc(-c3ccc(F)cc3)c(C3=NOCCN3)c2cc1C1CC1)S(C)(=O)=O [Example 131, N-[5-cyclopropyl-3-(5,6-dihydro-4H-1,2,4-oxadiazin-3-yl)-2-(4-fluorophenyl)-1-benzofuran-6-yl]-N-[3-(diethylamino)propyl]methanesulfonamide]	0.38 µM	0.131 µM	0.102 µM	0.026 µM	0.026 µM	0.446 µM	0.876 µM	0.0302 µM	29 fold	0.122 µM	0.35 µM	0.122 µM	0.122 µM	0.782 µM	0.171 µM
CS(=O)(=O)N(CCCN1CCCC1)c1cc2oc(-c3ccc(F)cc3)c(C3=NOCCN3)c2cc1C1CC1 [Example 132, N-[5-cyclopropyl-3-(5,6-dihydro-4H-1,2,4-oxadiazin-3-yl)-2-(4-fluorophenyl)-1-benzofuran-6-yl]-N-[3-(pyrrolidin-1-yl)propyl]methanesulfonamide]	0.244 µM	0.093 µM	0.122 µM	0.04 µM	0.04 µM	0.428 µM	0.934 µM	0.022 µM	42 fold	0.142 µM	0.313 µM	0.142 µM	0.142 µM	> 1 µM	0.246 µM
CS(=O)(=O)N(CCCC#N)c1cc2oc(-c3ccc(F)cc3)c(C3=NOCCN3)c2cc1C1CC1 [Example 133, N-(3-cyanopropyl)-N-[5-cyclopropyl-3-(5,6-dihydro-4H-1,2,4-oxadiazin-3-yl)-2-(4-fluorophenyl)-1-benzofuran-6-yl]methanesulfonamide]	0.092 µM	0.011 µM	0.055 µM	0.006 µM	0.006 µM	0.082 µM	0.05 µM	0.008 µM	6 fold	0.0063 µM	0.037 µM	0.0063 µM	0.00632 µM	0.075 µM	0.046 µM
CS(=O)(=O)N(CCCCCO)c1cc2oc(-c3ccc(F)cc3)c(C3=NOCCN3)c2cc1C1CC1 [Example 134, N-[5-cyclopropyl-3-(5,6-dihydro-4H-1,2,4-oxadiazin-3-yl)-2-(4-fluorophenyl)-1-benzofuran-6-yl]-N-(5-hydroxypentyl)methanesulfonamide]	0.084 µM	0.02 µM	0.093 µM	0.009 µM	0.009 µM	0.069 µM	0.042 µM	0.008 µM	5 fold	0.0065 µM	0.069 µM	0.0065 µM	0.00648 µM	0.053 µM	0.082 µM
C[S+]([O-])CCN(c1cc2oc(-c3ccc(F)cc3)c(C3=NOCCN3)c2cc1C1CC1)S(C)(=O)=O (stereo not drawn) [Example 138, N-[5-cyclopropyl-3-(5,6-dihydro-4H-1,2,4-oxadiazin-3-yl)-2-(4-fluorophenyl)-1-benzofuran-6-yl]-N-[2-(methylsulfinyl)ethyl]methanesulfonamide]	1 µM	0.102 µM	0.27 µM	0.036 µM	0.036 µM	1 µM	0.232 µM	0.0098 µM	24 fold	0.0465 µM	0.183 µM	0.0465 µM	0.0465 µM	0.524 µM	0.049 µM
C[S+]([O-])CCCN(c1cc2oc(-c3ccc(F)cc3)c(C3=NOCCN3)c2cc1C1CC1)S(C)(=O)=O (stereo not drawn) [Example 139, N-[5-cyclopropyl-3-(5,6-dihydro-4H-1,2,4-oxadiazin-3-yl)-2-(4-fluorophenyl)-1-benzofuran-6-yl]-N-[3-(methylsulfinyl)propyl]methanesulfonamide]	1 µM	0.102 µM	0.948 µM	0.068 µM	0.068 µM	0.787 µM	0.089 µM	0.0077 µM	11 fold	0.0592 µM	0.648 µM	0.0592 µM	0.0592 µM	0.572 µM	0.009 µM
CS(=O)(=O)CCCN(c1cc2oc(-c3ccc(F)cc3)c(C3=NOCCN3)c2cc1C1CC1)S(C)(=O)=O [Example 140, N-[5-cyclopropyl-3-(5,6-dihydro-4H-1,2,4-oxadiazin-3-yl)-2-(4-fluorophenyl)-1-benzofuran-6-yl]-N-[3-(methylsulfonyl)propyl]methanesulfonamide]	0.274 µM	0.044 µM	0.15 µM	0.011 µM	0.011 µM	0.211 µM	0.038 µM	0.005 µM	8 fold	0.0145 µM	0.122 µM	0.0145 µM	0.0145 µM	0.189 µM	0.042 µM
CC[S+]([O-])CCN(c1cc2oc(-c3ccc(F)cc3)c(C3=NOCCN3)c2cc1C1CC1)S(C)(=O)=O (stereo not drawn) [Example 141, N-[5-cyclopropyl-3-(5,6-dihydro-4H-1,2,4-oxadiazin-3-yl)-2-(4-fluorophenyl)-1-benzofuran-6-yl]-N-[2-(ethylsulfinyl)ethyl]methanesulfonamide]	0.623 µM	0.053 µM	0.296 µM	0.031 µM	0.031 µM	1 µM	0.209 µM	0.015 µM	14 fold	0.0385 µM	0.275 µM	0.0385 µM	0.0385 µM	0.621 µM	0.167 µM
